According to US5177096A, “Substituted 5-((tetrazolyl)alkenyl)imidazoles and pharmaceutical methods of use thereof” (SmithKline Beecham Corporation, priority 1990, dated 1993):
Where two headings read alike, the source gives them in different places.

System: pressor response to angiotensin II
Test: Inhibition of pressor response to angiotensin II in conscious rats
Type: in vivo
Settings: Rattus norvegicus, read-out: IC50 (dose of compound needed to produce 50% inhibition of the control response to angiotensin II)
Method: Angiotensin II antagonist activity of the compounds of Formula (I) is assessed by in vitro and in vivo methods. In vitro antagonist activity is determined by the ability of the compounds to compete with ^125 I-angiotensin II for binding to vascular angiotensin II receptors and by their ability to antagonize the contractile response to angiotensin II in the isolated rabbit aorta. In vivo activity is evaluated by the efficacy of the compounds to inhibit the pressor response to exogenous angiotensin II in conscious rats and to lower blood pressure in a rat model of renin dependent hypertension.
Rats are prepared with indwelling femoral arterial and venous catheters and a stomach tube (Gellai et al., Kidney Int. 15:419, 1979). Two to three days following surgery the rats are placed in a restrainer and blood pressure is continuously monitored from the arterial catheter with a pressure transducer and recorded on a polygraph. The change in mean arterial pressure in response to intravenous injections of […] angiotensin II is compared at various time points prior to and following the administration of the compounds intravenously or orally at doses of 3 to 300 mg/kg. The dose of compound needed to produce 50% inhibition of the control response to angiotensin II (IC50) is used to estimate the potency of the compounds.

CCCCc1ncc(/C=C(\Cc2cccs2)c2nnn[nH]2)n1Cc1ccccc1Cl [Example 1, (E)-1-[2-n-Butyl-1-{(2-chlorophenyl)methyl}-1H-imidazol-5-yl]-2-(1H-tetrazol-5-yl)-3-(2-thienyl)-1-propene]
ED50 (iv): 8 mg/kg | ED50 (po, orally): 13 mg/kg
